The values below come from patent US4182895A, “1-Amino-lower-alkyl-3,4-diphenyl-1H-pyrazoles” (Sterling Drug Inc., priority 1978, dated 1980).

For orientation: ED50 means the dose that gives a 50% effect, or the effect in half of the subjects. A high value points to weaker potency.

The conditions of assay [1]: Rosenthal, 1953; cited from earlier work.
The conditions of assay [2]: Buchi et al., 1955; cited from earlier work.
In assay [3] the test system is acetylcholine-induced abdominal constriction. As to the kind of experiment: Acetylcholine-induced abdominal constriction test (Ach), analgesic activity. Type of assay: in vivo, mice. The conditions noted are these: for ED50: Mus musculus. The text has this: (§1) The test procedures used to determine the analgesic activities of the compounds of the invention have been described in detail in the prior art and are as follows: The acetylcholine-induced abdominal constriction test, which is a primary analgesic screening test to measure the ability of a test agent to suppress acetylcholine-induced abdominal constriction in mice described by Collier et al., Brit. J. Pharmacol. Chemotherap. 32, 295 (1968) and the phenyl p-quinone-induced writhing test, also a primary analgesic screening test, designed to measure the ability of a test agent to prevent phenyl p-quinone-induced writhing in mice, described by Pearl and Harris, J. Pharmacol. Exptl. Therap. 154, 319-323 (1966).

The test system of assay [4] is tetrabenazine. The assay is described as follows: Anti-tetrabenazine (TB) test, anti-depressant activity: photocell activity counts after tetrabenazine. Type of assay: in vivo, Male Swiss-Webster mice. Particulars: 4 h before tetrabenazine 50 mg./kg. i.p. The protocol: The test procedure used to determine the anti-depressant activity of the compounds of the invention is described as follows: Male Swiss-Webster mice (Taconic Farms) weighing from 19-24 g. were divided into four groups of nine to ten mice per group. […] The fourth group received the vehicle only. Four hours following medication, all the control and the test animals were medicated with 50 mg./kg. (i.p.) of tetrabenazine and were placed in a photocell activity cage [described by Harris et al., Psychon. Sci., 4, 267 (1966)] equipped with a digital counter to record the number of times that a light beam impinging on a photocell is interrupted during the test period. Beginning thirty minutes after tetrabenazine medication, the photocell units were activated and the photocell counts recorded over a fifty minute period.

Assay [5] concerns phenyl p-quinone-induced writhing. The assay is described as follows: Phenyl p-quinone-induced writhing test (PPQ), analgesic activity. The conditions noted are these: Mus musculus, po. Type of assay: in vivo, mice.
From the text: as §1

The mark [6] stands for this setting: Tested at 4, 16 and 64 mg./kg. (p.o.), activity = significant difference, 0.05 level or less.

On to `NCCn1nc(-c2ccccc2)cc1-c1ccccc1` [1-(2-aminoethyl)-3,5-diphenyl-1H-pyrazole], for which the local anesthetic activity entry in assay [1] is reported as “having local anesthetic activity”.
In the case of `Cc1cn(CCN(C)C)nc1-c1ccccc1` [1-(2-dimethylaminoethyl)-3-phenyl-4-methyl-1H-pyrazole], the analgesic activity entry in assay [2] is reported as “analgesic activity is asserted”.
Consider `Cl.Cl.NCCCn1cc(-c2ccccc2)c(-c2ccccc2)n1` [Example 1A, 1-(3-aminopropyl)-3,4-diphenyl-1H-pyrazole dihydrochloride], for which the ED50 in assay [3] (sc) is 11 mg/kg. In assay [4] (setting [6]), the “TB (anti-tetrabenazine activity)” value is on record as “Inac”.
In the case of `CNCCCn1cc(-c2ccccc2)c(-c2ccccc2)n1.Cl` [Example 1B, 1-[3-(N-methylamino)propyl]-3,4-diphenyl-1H-pyrazole hydrochloride], the “TB (anti-tetrabenazine activity)” value in assay [4] (at 4 mg./kg.) is “Inac”; in assay [4] (at 16 and 64 mg./kg.) it was “Act”.
Regarding `CN(C)CCCn1cc(-c2ccccc2)c(-c2ccccc2)n1.Cl.Cl` [Example 2, 1-[3-(N,N-dimethylamino)propyl]-3,4-diphenyl-1H-pyrazole dihydrochloride], the “TB (anti-tetrabenazine activity)” value was “Inac” in assay [4] (at 2 mg./kg.); “Act” in assay [4] (at 4, 8 and 16 mg./kg.).
Turning to `CCN(CC)CCn1cc(-c2ccccc2)c(-c2ccccc2)n1.Cl` [Example 3, 1-[2-(N,N-diethylamino)ethyl]-3,4-diphenyl-1H-pyrazole hydrochloride], the ED50 turned out to be 90 mg/kg in assay [5] and 29 mg/kg in assay [3] (po). Besides, the Ach % effect was 53% in assay [3] (10 mg./kg. s.c.), 67% in assay [3] (50 mg./kg. s.c.) and 60% in assay [3] (100 mg./kg. s.c.). Also, the “TB (anti-tetrabenazine activity)” value in assay [4] (setting [6]) is on record as “Inac”.
As to `CCN(CC)CCCn1cc(-c2ccccc2)c(-c2ccccc2)n1.Cl` [Example 4, 1-[3-(N,N-diethylamino)propyl]-3,4-diphenyl-1H-pyrazole hydrochloride], in assay [3] (sc), the ED50 stood at 2.2 mg/kg. Further, the “TB (anti-tetrabenazine activity)” value in assay [4] (setting [6]) was “Inac”.
